Reference: patent US10004716B2, “Therapeutic/ preventive agent containing coumarin derivative as active ingredient” (NIPPON ZOKI PHARMACEUTICAL CO., LTD., priority 2014, dated 2018)

Columns and labels:
IL-1β gene expression = assay: Suppression of LPS-induced gene expression of inflammation-related factors in THP-1 cells (real time PCR): IL-1β; type: cell-based, human; conditions: PMA-differentiated THP-1 cells; test substance 12.5 μmol/mL 2 hours, then LPS 10 mg/mL 3 hours; n = 3
Procedure: (§1) THP-1 cells were subjected to induction of differentiation for 72 hours with PMA (phorbol 12-myristate 13-acetate; 100 nM/L) and then the THP-1 cells (5×10^5 cells/mL) were incubated for 24 hours in a RPMI 1640+10% FCS culture solution in a 24-well plate. After that, a test substance was added so as to make the final concentration 12.5 μmol/mL followed by conducting the preincubation for 2 hours, a lipopolysaccharide (LPS) was then added thereto so as to make the final concentration 10 mg/mL and, after 3 hours, the cells were recovered.
(§2) QIAzol Lysis Reagent (QIAGEN) (1 mL) was added to the above to suspend, 200 μL of chloroform was added thereto followed by mixing and centrifugation (at 4° C. and 1500 rpm) was conducted whereby the supernatant liquid was recovered. Total RNA was extracted and purified by treating the supernatant liquid with QIACube (QIAGEN) and RNeasy Micro Kit (QIAGEN). cDNA was prepared from the total RNA using Omniscript RT kit (QIAGEN) and Oligo(dT)12-18 Primer (Invitrogen).
(§3) Gene expression level of the inflammation-related factors [IL-1β, IL-6 and monocyte chemotactic protein (MCP)-1] was measured by a conventional real time PCR method using a fluorescent dye SYBR GREEN I (Roche Diagnostics) by Light Cycler LC 480 (the same) using cDNA synthesized from the total RNA extracted in the above (2). A calibration curve was prepared by diluting the PCR product quantified by PicoGreen dsDNA Quantitation kit (Molecular probes) (a DNA quantitation kit) to an extent of 10^2˜10^7 copies/μL. From each of the resulting quantified values, copy numbers per 10000 copies of GAPDH gene being an internal standard were calculated.

[1] = tested on: monocyte chemotactic protein (MCP)-1 gene expression; assay: Suppression of LPS-induced gene expression of inflammation-related factors in THP-1 cells (real time PCR): MCP-1; type: cell-based, human; conditions: PMA-differentiated THP-1 cells; test substance 12.5 μmol/mL 2 hours, then LPS 10 mg/mL 3 hours; n = 3
Procedure: as §1, §2, §3

[2] = tested on: connective tissue growth factor (CTGF) gene expression; assay: Evaluation I: TGF-β-induced gene expression of fibrosis-related factors in NHLF cells: CTGF; type: cell-based, human; conditions: 25 μmol/L test substance 2 hours, then TGF-β 5 ng/mL 24 hours, n = 3
Procedure: (§4) NHLF cells were sown so as to make their amount 4×10^4 cells/well to each well of a 12-well plate and incubated to an extent of 80% confluent in a medium where fibroblast growth medium 2 supplement mix (FGM-2 SingleQuots, Lonza) was added to a fibroblast basal medium (FBM, Lonza). After that, incubation was conducted for 2 hours in a Dulbecco modified Eagle medium (DMEM) containing 25 μmol/L of a test substance and, after addition of […] growth factor (TGF)-β thereto so as to make its final concentration 5 ng/mL, incubation was carried out for 24 hours more.
as §2, with “rpm) was then conducted whereby” for “rpm) was conducted whereby”
as §3, with “fibrosis-related” for “inflammation-related”, “[connective tissue growth factor (CTGF), α-smooth muscle actin (SMA), fibronectin, endothelin” for “[IL-1β, IL-6”, “type I collagen (Col 1)]” for “monocyte chemotactic protein (MCP)-1]”

[3] = tested on: fibronectin gene expression; assay: Evaluation I: TGF-β-induced gene expression of fibrosis-related factors in NHLF cells: fibronectin; type: cell-based, human; conditions: 25 μmol/L test substance 2 hours, then TGF-β 5 ng/mL 24 hours, n = 3
Procedure: as §4
as §2, with “rpm) was then conducted whereby” for “rpm) was conducted whereby”
as §3, with “fibrosis-related” for “inflammation-related”, “[connective tissue growth factor (CTGF), α-smooth muscle actin (SMA), fibronectin, endothelin” for “[IL-1β, IL-6”, “type I collagen (Col 1)]” for “monocyte chemotactic protein (MCP)-1]”

[4] = tested on: endothelin gene expression; assay: Evaluation I: TGF-β-induced gene expression of fibrosis-related factors in NHLF cells: endothelin; type: cell-based, human; conditions: 25 μmol/L test substance 2 hours, then TGF-β 5 ng/mL 24 hours, n = 3
Procedure: as §4
as §2, with “rpm) was then conducted whereby” for “rpm) was conducted whereby”
as §3, with “fibrosis-related” for “inflammation-related”, “[connective tissue growth factor (CTGF), α-smooth muscle actin (SMA), fibronectin, endothelin” for “[IL-1β, IL-6”, “type I collagen (Col 1)]” for “monocyte chemotactic protein (MCP)-1]”

[5] = tested on: rats suffering from degenerative intervertebral disk induced by nicotine; assay: 50% reaction threshold value to mechanical stimulation (von Frey test) in rats with degenerative intervertebral disk induced by nicotine; type: in vivo; conditions: SD male rats, after 41 days from exposure to nicotine, 1 hour after administration; per os once daily; n = 8; normal control 15.0, diseased control 4.6
Procedure: After 16 days from the purchase, SD male rats were organized into normal control group and nicotine group in terms of body weight, 50% reaction threshold value (measuring method will be mentioned later) and duration of walking time and, after 17 days from the purchase, exposure to nicotine was started for a nicotine group. Nicotine was prepared into 344.8 mg/mL using a physiological saline solution, filled into an osmotic pressure pump and retained under the skin of waist of rats. After 21 days from the retaining, an osmotic pressure pump into which a freshly-prepared nicotine solution was filled was retained under the skin of rats of five groups except the normal control group. Nicotine was prepared into […] using a physiological saline solution, filled into an osmotic pressure pump and retained under the skin of waist of the SD male rats.
After 13 days from exposure to nicotine, measurement of 50% reaction threshold value, duration of walking time and body weight were measured and a group organization was done into 6 groups of normal control group, diseased control group, compound 57-administered group, compound 58-administered group, compound 60-administered group and compound 68-administered group.
A test substance was suspended using 0.5 w/v % CMC and, together with stirring, 10 mL/kg of the suspension was repeatedly administered per os once daily after 14 to 52 or 53 days from the initiation of exposure to nicotine using an oral sonde for rats. To the normal control group and the diseased control group, 0.5 w/v % CMC was repeatedly administered per os in the same administration schedule and administration method.
A 50% reaction threshold value to mechanical stimulation was measured before the exposure to nicotine and after 41 days from the exposure to nicotine. The six groups of the rats mentioned in the above (2) were placed in a transparent acrylic gauge where the bottom is a metal wire, acclimated for about 3 minutes and a 50% reaction threshold value to mechanical stimulation was measured after 1 hour from the administration of a testing drug.
The measurement was conducted using a von Frey filament (manufactured by North Coast Medical Inc.) in accordance with a method of Chaplan, et al. (Journal of Neuroscience Methods, vol. 53, no. 1, pages 55 to 63, 1994) and a method of Dixon, et al. ([…] of Pharmacology and Toxicology, vol. 20, pages 441 to 462, 1980). […] A 50% reaction threshold value to mechanical stimulation was measured using the reaction for the stimulation for six times in total and a mean value in each of the groups was calculated. […]

Compound	Copy Numbers per 10000 Copies of GAPDH IL-1β (IL-1β gene expression)	Copy Numbers per 10000 Copies of GAPDH MCP-1 [1]	Copy Numbers per 10000 Copies of GAPDH CTGF [2]	Copy Numbers per 10000 Copies of GAPDH Fibronectin [3]	Copy Numbers per 10000 Copies of GAPDH Endothelin [4]	Threshold Value for Pain [5] [g]
O=c1oc2c(OS(=O)(=O)c3ccc(C(F)(F)F)cc3)cccc2cc1NS(=O)(=O)c1cccc(C(F)(F)F)c1 [Compound 57, 2-Oxo-3-[[3-(trifluoromethyl)phenyl]sulfonylamino]-chromen-8-yl 4-(trifluoromethyl)benzenesulfonate]	30318.3 copies per 10000 copies of GAP	1001.3 copies per 10000 copies of GAP	8963.4 copies per 10000 copies of GAP	21220.7 copies per 10000 copies of GAP	8.2 copies per 10000 copies of GAP	7.5
O=c1oc2c(OS(=O)(=O)c3ccc(C(F)(F)F)cc3)cccc2cc1NS(=O)(=O)c1cccc(Br)c1 [Compound 58, 3-[(3-Bromophenyl)sulfonylamino]-2-oxochromen-8-yl 4-(trifluoromethyl)benzenesulfonate]	31904.4 copies per 10000 copies of GAP	1040.9 copies per 10000 copies of GAP	5020.5 copies per 10000 copies of GAP	18665.2 copies per 10000 copies of GAP	7.6 copies per 10000 copies of GAP	6.7
O=c1oc2c(OS(=O)(=O)c3cccc(Br)c3)cccc2cc1NS(=O)(=O)c1cccc(C(F)(F)F)c1 [Compound 60, 2-Oxo-3-[[3-(trifluoromethyl)phenyl]sulfonylamino]-chromen-8-yl 3-bromobenzenesulfonate]	29872.3 copies per 10000 copies of GAP	1787.5 copies per 10000 copies of GAP	13992.0 copies per 10000 copies of GAP	30000.8 copies per 10000 copies of GAP	16.9 copies per 10000 copies of GAP	9.6
O=c1oc2c(OS(=O)(=O)c3cccc(C(F)(F)F)c3)cccc2cc1NS(=O)(=O)c1ccc(C(F)(F)F)cc1 [Compound 68, 2-Oxo-3-[[4-(trifluoromethyl)phenyl]sulfonylamino]-chromen-8-yl 3-(trifluoromethyl)benzenesulfonate]	24423.1 copies per 10000 copies of GAP	823.5 copies per 10000 copies of GAP	10441.5 copies per 10000 copies of GAP	26090.7 copies per 10000 copies of GAP	6.4 copies per 10000 copies of GAP	7.6
